Measured values: US20100267561A1, “HERBICIDAL PYRIDAZINONE DERIVATIVES” (priority 2007, published 2010)

Assays:
Format in all cases: in vivo
[1] = system: ducksalad (Heteranthera limosa); experiment: Test B flooded paddy test plant response
Summary of the method: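 2-leaf plants; pots flooded 3 cm above soil; compound added to paddy water; depth maintained. Greenhouse 13–15 d. Visual rating vs controls, 0 (no effect) to 100 (complete control); dash = no result.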

corn (Zea mays) = experiment: Test B pre-/postemergence plant response
Summary of the method: (§1)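 Seeds were sown and sprayed preemergence, while plants at 2 to 18 cm (1- to 4-leaf stage) got postemergence sprays. Compounds were formulated in a non-phytotoxic solvent mixture with surfactant. After 13 to 15 days in a greenhouse, injury was rated visually against untreated controls, 0 (no effect) to 100 (complete control).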

[2] = system: common (oilseed) sunflower (Helianthus annuus); experiment: Test B pre-/postemergence plant response; details: Preemergence
Summary of the method: as §1

[3] = system: large crabgrass (Digitaria sanguinalis); experiment: Test B pre-/postemergence plant response
Summary of the method: as §1

[4] = system: surinam grass (Brachiaria decumbens); experiment: Test B pre-/postemergence plant response
Summary of the method: as §1

kochia (Kochia scoparia) = experiment: Test B pre-/postemergence plant response
Summary of the method: as §1

[5] = system: cocklebur (Xanthium strumarium); experiment: Test B pre-/postemergence plant response; details: for Cocklebur plant response rating: 8 g ai/ha
Summary of the method: as §1

[6] = system: goosegrass (Eleusine indica); experiment: Test B pre-/postemergence plant response
Summary of the method: as §1

[7] = system: common ragweed (Ambrosia elation); experiment: Test B pre-/postemergence plant response
Summary of the method: as §1

soybean (Glycine max) = experiment: Test B pre-/postemergence plant response
Summary of the method: as §1

[8] = system: wheat (Triticum aestivum); experiment: Test B pre-/postemergence plant response
Summary of the method: as §1

[9] = system: Russian thistle (Salsola iberica); experiment: Test B pre-/postemergence plant response; details: Preemergence
Summary of the method: as §1

[10] = system: bermudagrass (Cynodon dactylon); experiment: Test B pre-/postemergence plant response; details: for Bermudagrass plant response rating: 8 g ai/ha
Summary of the method: as §1

[11] = system: lambsquarters (Chenopodium album); experiment: Test B pre-/postemergence plant response
Summary of the method: as §1

[12] = Flood (flooded paddy test), 62 g ai/ha, scale 0 to 100, 0 no effect, 100 complete control
[13] = Flood (flooded paddy test), 125 g ai/ha, scale 0 to 100, 0 no effect, 100 complete control
[14] = Flood (flooded paddy test), 250 g ai/ha, scale 0 to 100, 0 no effect, 100 complete control
[15] = Flood, 31 g ai/ha, scale 0 to 100
[16] = 8 g ai/ha, postemergence, 0-100 scale
[17] = Postemergence, 16 g ai/ha, scale 0 to 100
[18] = Postemergence, 31 g ai/ha, scale 0 to 100
[19] = Postemergence, 62 g ai/ha, scale 0 to 100, 0 no effect, 100 complete control
[20] = Preemergence, 31 g ai/ha, 0 to 100 scale, 0 no effect, 100 complete control
[21] = Preemergence, 62 g ai/ha, scale 0 to 100
[22] = Preemergence, 8 g ai/ha, scale 0 to 100
[23] = Preemergence, 16 g ai/ha, scale 0 to 100
[24] = 31 g ai/ha, scale 0 to 100 (0 no effect, 100 complete control)
[25] = Preemergence, 31 g ai/ha, scale 0 to 100 (0 no effect, 100 complete control)
[26] = Preemergence, 62 g ai/ha, 0 to 100 scale, 0 no effect, 100 complete control
[27] = Preemergence, 16 g ai/ha, scale 0 to 100 (0 no effect, 100 complete control)
[28] = Preemergence, scale 0 to 100 (0 no effect, 100 complete control)
[29] = 62 g ai/ha, 0 to 100 scale, 0 no effect, 100 complete control

CCOC(=O)Oc1cnn(C)c(=O)c1-n1nc(-c2ccc(Cl)cc2)cc1C [Compound 53]
70: Bermudagrass plant response rating ([10]; postemergence, 0-100 scale)
90: Plant response rating, Crabgrass, Large [3, 18]
60: Plant response rating, Corn (corn (Zea mays); [21]) | Plant response rating, Surinam Grass [4, 25] | Plant response rating, Goosegrass [6, 17]
20: Corn plant response rating (corn (Zea mays); [16]) | Surinam Grass plant response rating [4, 23] | Goosegrass plant response rating [6, 16]
0: Plant response rating, Ducksalad [1, 12] | Plant response rating, Ducksalad [1, 15] | Corn plant response rating (corn (Zea mays); [22]) | Plant response rating, Sunflower [2, 24] | Plant response rating, Sunflower ([2]; 62 g ai/ha, scale 0 to 100) | Sunflower plant response rating ([2]; 8 g ai/ha, scale 0 to 100) | Sunflower plant response rating ([2]; 16 g ai/ha, scale 0 to 100) | Plant response rating, Crabgrass, Large [3, 20] | Plant response rating, Crabgrass, Large [3, 21] | Crabgrass, Large plant response rating [3, 22] | Crabgrass, Large plant response rating [3, 23] | Surinam Grass plant response rating [4, 22] | Kochia plant response rating (kochia (Kochia scoparia); [16]) | Plant response rating, Kochia (kochia (Kochia scoparia); [17]) | Plant response rating, Kochia (kochia (Kochia scoparia); [18]) | Plant response rating, Kochia (kochia (Kochia scoparia); [19]) | Plant response rating, Kochia (kochia (Kochia scoparia); [20]) | Cocklebur plant response rating ([5]; postemergence, 0-100 scale) | Plant response rating, Cocklebur [5, 17] | Plant response rating, Cocklebur [5, 18] | Plant response rating, Cocklebur [5, 19] | Plant response rating, Cocklebur [5, 27] | Plant response rating, Cocklebur [5, 20] | Plant response rating, Cocklebur [5, 21] | Cocklebur plant response rating ([5]; Preemergence, scale 0 to 100) | Plant response rating, Goosegrass [6, 20] | Plant response rating, Goosegrass [6, 21] | Goosegrass plant response rating [6, 22] | Goosegrass plant response rating [6, 23] | Ragweed plant response rating [7, 16] | Plant response rating, Ragweed [7, 17] | Plant response rating, Ragweed [7, 18] | Plant response rating, Ragweed [7, 19] | Plant response rating, Ragweed [7, 25] | Plant response rating, Ragweed [7, 21] | Ragweed plant response rating [7, 22] | Ragweed plant response rating [7, 23] | Soybean plant response rating (soybean (Glycine max); [16]) | Plant response rating, Soybean (soybean (Glycine max); [17]) | Plant response rating, Soybean (soybean (Glycine max); [18]) | Plant response rating, Soybean (soybean (Glycine max); [19]) | Plant response rating, Soybean (soybean (Glycine max); [25]) | Soybean plant response rating (soybean (Glycine max); [22]) | Soybean plant response rating (soybean (Glycine max); [23]) | Plant response rating, Wheat [8, 25] | Wheat plant response rating [8, 23] | Plant response rating, Russian Thistle [9, 24] | Plant response rating, Russian Thistle ([9]; 62 g ai/ha, scale 0 to 100) | Russian Thistle plant response rating ([9]; 8 g ai/ha, scale 0 to 100) | Russian Thistle plant response rating ([9]; 16 g ai/ha, scale 0 to 100) | Bermudagrass plant response rating [10, 28] | Plant response rating, Bermudagrass [10, 27] | Plant response rating, Bermudagrass [10, 20] | Plant response rating, Bermudagrass [10, 21] | Lambsquarters plant response rating [11, 16] | Plant response rating, Lambsquarters [11, 17] | Plant response rating, Lambsquarters [11, 18] | Plant response rating, Lambsquarters [11, 19] | Plant response rating, Lambsquarters [11, 20] | Lambsquarters plant response rating [11, 22] | Lambsquarters plant response rating [11, 23]
98: Plant response rating, Surinam Grass [4, 17]
85: Plant response rating, Crabgrass, Large [3, 17] | Plant response rating, Wheat [8, 18] | Plant response rating, Wheat [8, 19]
50: Plant response rating, Ducksalad [1, 13] | Plant response rating, Ducksalad [1, 14]
45: Corn plant response rating (corn (Zea mays); [23])
55: Plant response rating, Corn (corn (Zea mays); [20]) | Plant response rating, Wheat [8, 17] | Plant response rating, Wheat [8, 26]
75: Surinam Grass plant response rating [4, 16]
35: Plant response rating, Lambsquarters [11, 21]
100: Plant response rating, Corn (corn (Zea mays); [17]) | Plant response rating, Corn (corn (Zea mays); [18]) | Plant response rating, Corn (corn (Zea mays); [19]) | Plant response rating, Crabgrass, Large [3, 19] | Plant response rating, Surinam Grass [4, 18] | Plant response rating, Surinam Grass [4, 19] | Plant response rating, Goosegrass [6, 19] | Plant response rating, Bermudagrass [10, 17] | Plant response rating, Bermudagrass [10, 18] | Plant response rating, Bermudagrass [10, 19]
95: Plant response rating, Surinam Grass [4, 26]
65: Crabgrass, Large plant response rating [3, 16] | Plant response rating, Goosegrass [6, 18] | Plant response rating, Soybean (soybean (Glycine max); [21])
5: Wheat plant response rating [8, 16]

CCCC(=O)Oc1cnn(C)c(=O)c1-n1nc(-c2ccc(Cl)cc2)cc1C [Compound 56]
65: Crabgrass, Large plant response rating [3, 16] | Plant response rating, Goosegrass [6, 17] | Plant response rating, Wheat [8, 17] | Bermudagrass plant response rating ([10]; postemergence, 0-100 scale)
20: Kochia plant response rating (kochia (Kochia scoparia); [23]) | Plant response rating, Lambsquarters [11, 26]
0: Plant response rating, Ducksalad [1, 12] | Plant response rating, Ducksalad [1, 15] | Corn plant response rating (corn (Zea mays); [22]) | Plant response rating, Sunflower [2, 24] | Plant response rating, Sunflower [2, 29] | Sunflower plant response rating ([2]; 8 g ai/ha, scale 0 to 100) | Sunflower plant response rating ([2]; 16 g ai/ha, scale 0 to 100) | Crabgrass, Large plant response rating [3, 22] | Kochia plant response rating (kochia (Kochia scoparia); [16]) | Plant response rating, Kochia (kochia (Kochia scoparia); [17]) | Plant response rating, Kochia (kochia (Kochia scoparia); [18]) | Plant response rating, Kochia (kochia (Kochia scoparia); [19]) | Kochia plant response rating (kochia (Kochia scoparia); [22]) | Cocklebur plant response rating ([5]; postemergence, 0-100 scale) | Plant response rating, Cocklebur [5, 17] | Plant response rating, Cocklebur [5, 18] | Plant response rating, Cocklebur [5, 19] | Plant response rating, Cocklebur [5, 27] | Plant response rating, Cocklebur [5, 25] | Plant response rating, Cocklebur [5, 26] | Cocklebur plant response rating ([5]; Preemergence, scale 0 to 100) | Ragweed plant response rating [7, 16] | Plant response rating, Ragweed [7, 17] | Plant response rating, Ragweed [7, 18] | Plant response rating, Ragweed [7, 19] | Plant response rating, Ragweed [7, 25] | Plant response rating, Ragweed [7, 26] | Ragweed plant response rating [7, 22] | Ragweed plant response rating [7, 23] | Soybean plant response rating (soybean (Glycine max); [16]) | Plant response rating, Soybean (soybean (Glycine max); [17]) | Plant response rating, Soybean (soybean (Glycine max); [18]) | Plant response rating, Soybean (soybean (Glycine max); [19]) | Plant response rating, Soybean (soybean (Glycine max); [26]) | Soybean plant response rating (soybean (Glycine max); [22]) | Soybean plant response rating (soybean (Glycine max); [23]) | Plant response rating, Russian Thistle [9, 24] | Plant response rating, Russian Thistle [9, 29] | Russian Thistle plant response rating ([9]; 8 g ai/ha, scale 0 to 100) | Russian Thistle plant response rating ([9]; 16 g ai/ha, scale 0 to 100) | Lambsquarters plant response rating [11, 16] | Plant response rating, Lambsquarters [11, 17] | Plant response rating, Lambsquarters [11, 18] | Plant response rating, Lambsquarters [11, 19] | Plant response rating, Lambsquarters [11, 25] | Lambsquarters plant response rating [11, 22] | Lambsquarters plant response rating [11, 23]
60: Crabgrass, Large plant response rating [3, 23] | Goosegrass plant response rating [6, 16]
85: Plant response rating, Corn (corn (Zea mays); [17]) | Plant response rating, Crabgrass, Large [3, 17] | Bermudagrass plant response rating [10, 28]
35: Plant response rating, Wheat [8, 25]
10: Corn plant response rating (corn (Zea mays); [23]) | Wheat plant response rating [8, 23]
5: Wheat plant response rating [8, 16]
70: Surinam Grass plant response rating [4, 16] | Plant response rating, Bermudagrass [10, 17]
40: Plant response rating, Ducksalad [1, 13]
100: Plant response rating, Crabgrass, Large [3, 19] | Plant response rating, Crabgrass, Large [3, 25] | Plant response rating, Crabgrass, Large [3, 26] | Plant response rating, Surinam Grass [4, 19] | Plant response rating, Surinam Grass [4, 25] | Plant response rating, Surinam Grass [4, 26] | Plant response rating, Kochia (kochia (Kochia scoparia); [26]) | Plant response rating, Goosegrass [6, 26] | Plant response rating, Bermudagrass [10, 19] | Plant response rating, Bermudagrass [10, 27] | Plant response rating, Bermudagrass [10, 25] | Plant response rating, Bermudagrass [10, 26]
75: Plant response rating, Ducksalad [1, 14] | Corn plant response rating (corn (Zea mays); [16]) | Plant response rating, Surinam Grass [4, 17] | Surinam Grass plant response rating [4, 22] | Plant response rating, Goosegrass [6, 18] | Goosegrass plant response rating [6, 22]
95: Plant response rating, Corn (corn (Zea mays); [18]) | Plant response rating, Corn (corn (Zea mays); [19]) | Plant response rating, Corn (corn (Zea mays); [25]) | Plant response rating, Corn (corn (Zea mays); [26]) | Plant response rating, Crabgrass, Large [3, 18] | Plant response rating, Bermudagrass [10, 18]
80: Goosegrass plant response rating [6, 23] | Plant response rating, Wheat [8, 18] | Plant response rating, Wheat [8, 26]
98: Plant response rating, Surinam Grass [4, 18] | Plant response rating, Kochia (kochia (Kochia scoparia); [25]) | Plant response rating, Goosegrass [6, 19] | Plant response rating, Goosegrass [6, 25]
90: Surinam Grass plant response rating [4, 23] | Plant response rating, Wheat [8, 19]
